The values below come from ChEMBL document CHEMBL4177747, “1,5-Disubstituted 1,2,3-triazole linked disaccharides: Metal-free syntheses and screening of a new class of ribonuclease A inhibitors” (Bioorg Med Chem, 2018).

Active and inactive are the calls of the source. The calls are words filed in the database; no cut-off is given here.

Assay [1] in a line: Inhibition of RNase A (unknown origin) using varying levels of 2',3'-cCMP as substrate by Lineweaver-burk plot analysis. Also on record: species or system Homo sapiens.
The species named for assay [2] is Homo sapiens. Briefly: Inhibition of RNase A (unknown origin) assessed as reduction in tRNA substrate degradation at 0.1 to 0.2 mM pretreated for 3 hrs followed by substrate addition measured after 30 mins by ethidium bromide staining based agarose gel electrophoresis.
For assay [3], the species on record is Homo sapiens. The experiment in a line: Inhibition of RNase A (unknown origin) assessed as reduction in tRNA substrate degradation at 0.25 to 0.3 mM pretreated for 3 hrs followed by substrate addition measured after 30 mins by ethidium bromide staining based agarose gel electrophoresis.
Assay [4] is filed under the species Homo sapiens. The experiment in a line: Inhibition of RNase A (unknown origin) assessed as reduction in tRNA substrate degradation at 0.1 to 0.15 mM pretreated for 3 hrs followed by substrate addition measured after 30 mins by ethidium bromide staining based agarose gel electrophoresis.
The species named for assay [5] is Homo sapiens. The experiment in a line: Inhibition of RNase A (unknown origin) assessed as reduction in tRNA substrate degradation at 0.35 to 0.5 mM pretreated for 3 hrs followed by substrate addition measured after 30 mins by ethidium bromide staining based agarose gel electrophoresis.
Assay [6] is filed under the species Homo sapiens. Briefly: Inhibition of RNase A (unknown origin) assessed as reduction in tRNA substrate degradation at 0.6 to 1 mM pretreated for 3 hrs followed by substrate addition measured after 30 mins by ethidium bromide staining based agarose gel electrophoresis.

As a reminder, the Ki is the dissociation constant of the complex between target and ligand, obtained from inhibition or displacement. A lower Ki goes with tighter binding. `Cc1cn([C@@H]2O[C@H](C(=O)N[C@H](CC(=O)O)C(=O)N[C@H]3C[C@H](n4cc(C)c(=O)[nH]c4=O)O[C@@H]3CO)[C@@H](O)[C@H]2O)c(=O)[nH]c1=O` returned a Ki in assay [1] of 66 µM.
Take `CC1(C)O[C@H]2O[C@H](Cn3nncc3[C@H]3O[C@@H]4OC(C)(C)O[C@@H]4[C@H]3OCc3ccccc3)[C@H](O)[C@H]2O1`: the inhibition result in assay [2], in assay [3], in assay [4], in assay [5] and in assay [6] was “Active” each time. This compound registered an inhibition constant (Ki) in assay [1] of 563 µM.
